molecular target: T1, purified human HDAC6 (Homo sapiens, UniProt Q9UBN7); assay: HDAC6 Enzyme Assay; assay type: biochemical; conditions: bin: greater than 500 nM and less than 1 μM (lower bound in nM, upper bound in μM)
T1 construct: purchased BPS Bioscience 5006
T1 sequence (Q9UBN7 1-1215): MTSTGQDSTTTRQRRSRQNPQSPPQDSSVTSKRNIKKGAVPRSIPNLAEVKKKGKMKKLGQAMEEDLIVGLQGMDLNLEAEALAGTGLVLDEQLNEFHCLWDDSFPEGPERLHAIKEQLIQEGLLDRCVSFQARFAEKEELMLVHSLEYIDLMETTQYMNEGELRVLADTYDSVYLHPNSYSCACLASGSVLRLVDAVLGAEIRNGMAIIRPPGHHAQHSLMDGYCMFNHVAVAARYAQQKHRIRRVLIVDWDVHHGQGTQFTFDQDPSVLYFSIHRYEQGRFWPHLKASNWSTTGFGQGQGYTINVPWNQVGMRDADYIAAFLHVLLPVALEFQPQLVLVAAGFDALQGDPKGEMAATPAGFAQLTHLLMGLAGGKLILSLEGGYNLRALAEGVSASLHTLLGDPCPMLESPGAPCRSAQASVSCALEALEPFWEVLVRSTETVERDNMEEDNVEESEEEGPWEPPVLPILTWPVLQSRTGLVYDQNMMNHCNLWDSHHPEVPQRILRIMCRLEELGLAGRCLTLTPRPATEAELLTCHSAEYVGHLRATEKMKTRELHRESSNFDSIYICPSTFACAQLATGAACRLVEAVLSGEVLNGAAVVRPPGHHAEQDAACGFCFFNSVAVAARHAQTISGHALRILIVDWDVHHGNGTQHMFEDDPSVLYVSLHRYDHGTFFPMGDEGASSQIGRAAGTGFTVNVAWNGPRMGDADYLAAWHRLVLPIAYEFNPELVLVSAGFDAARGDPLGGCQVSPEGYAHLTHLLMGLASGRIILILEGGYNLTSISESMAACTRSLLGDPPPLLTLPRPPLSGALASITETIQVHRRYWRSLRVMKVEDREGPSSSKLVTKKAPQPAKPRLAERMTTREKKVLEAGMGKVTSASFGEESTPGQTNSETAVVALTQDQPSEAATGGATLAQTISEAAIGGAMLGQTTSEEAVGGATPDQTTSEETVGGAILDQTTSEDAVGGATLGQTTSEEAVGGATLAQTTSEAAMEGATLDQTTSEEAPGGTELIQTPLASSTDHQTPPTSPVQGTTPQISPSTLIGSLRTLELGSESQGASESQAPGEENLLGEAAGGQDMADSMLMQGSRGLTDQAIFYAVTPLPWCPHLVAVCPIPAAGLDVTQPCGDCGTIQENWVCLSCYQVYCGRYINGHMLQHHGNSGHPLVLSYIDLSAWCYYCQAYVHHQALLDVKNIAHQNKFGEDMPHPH
Procedure, shortened: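 Deacetylated product quantified after trypsin digestion as released AMC (340/460 nm), following a 1 h, 30 °C reaction of human HDAC6 with Ac-RGK(Ac)-AMC peptide, quenched by trichostatin A. IC50 derived from DMSO-normalized curves.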

Row | IC50 [nM] | Structure (SMILES)
1 | 500 to 1000 | Cc1nc(C(=O)NC(C)c2cccc(C(=O)NO)c2)cs1 (stereo not drawn) [Compound I-29, N-(1-{3-[(hydroxyamino)carbonyl]phenyl}ethyl)-2-methyl-1,3-thiazole-4-carboxamide]
2 | 500 to 1000 | CC(C)(C)C(NC(=O)c1cc(F)cc(F)c1)c1ccc(C(=O)NO)cc1 (stereo not drawn) [Compound I-251, 3,5-difluoro-N-(1-{4-[(hydroxyamino)carbonyl]phenyl}-2,2-dimethylpropyl)benzamide]
3 | 500 to 1000 | CC(NC(=O)c1ccc(C(C)(C)C)cc1)c1cccc(C(=O)NO)c1 (stereo not drawn) [Compound I-268, 3-{1-[(4-tert-butylbenzoyl)amino]ethyl}-N-hydroxybenzamide]
4 | 500 to 1000 | CC(NC(=O)c1c2c(nn1C)CCCC2)c1cccc(C(=O)NO)c1 (stereo not drawn) [Compound I-101, N-(1-{3-[(hydroxyamino)carbonyl]phenyl}ethyl)-2-methyl-4,5,6,7-tetrahydro-2H-indazole-3-carboxamide]
5 | 500 to 1000 | CCC[C@H](NC(=O)C(C)(C)C)c1ccc(C(=O)NO)cc1 [Compound I-536, 4-{(1S)-1-[(2,2-dimethylpropanoyl)amino]butyl}-N-hydroxybenzamide]

same assay, conditions: bin: greater than 1 μM

Row | Structure (SMILES) | IC50 [nM]
6 | CC(NC(=O)C1CCCC1)c1cccc(C(=O)NO)c1 (stereo not drawn) [Compound I-311, 3-{1-[(cyclopentylcarbonyl)amino]ethyl}-N-hydroxybenzamide] | > 1000
7 | CC(NC(=O)Cc1c(F)cccc1Cl)c1ccc(C(=O)NO)cc1 (stereo not drawn) [Compound I-24, 4-(1-{[(2-chloro-6-fluorophenyl)acetyl]amino}ethyl)-N-hydroxybenzamide] | > 1000
8 | CC(NC(=O)CC1CCOCC1)c1ccc(C(=O)NO)cc1 (stereo not drawn) [Compound I-313, N-hydroxy-4-{1-[(tetrahydro-2H-pyran-4-ylacetyl)amino]ethyl}benzamide] | > 1000

Results, then the compound that gave them:

Row | IC50 [nM] | Structure (SMILES)
9 | > 1000 | CC(NC(=O)c1cc2oc(-c3ccc(C(C)(C)C)cc3)cc2n1C)c1cccc(C(=O)NO)c1 (stereo not drawn) [Compound I-324, 2-(4-tert-butylphenyl)-N-(1-{3-[(hydroxyamino)carbonyl]phenyl}ethyl)-4-methyl-4H-furo[3,2-b]pyrrole-5-carboxamide]
10 | > 1000 | Cc1cc(C(=O)NO)ccc1C(C)NC(=O)c1cccn1C (stereo not drawn) [Compound I-486, N-(1-{4-[(hydroxyamino)carbonyl]-2-methylphenyl}ethyl)-1-methyl-1H-pyrrole-2-carboxamide]

same assay, conditions: purified human HDAC6, substrate Ac-Arg-Gly-Lys(Ac)-AMC, 1 hour at 30° C.; reported as bins

Row | Structure (SMILES) | IC50 [nM]
11 | CC(C)C(NC(=O)c1cc(C(F)(F)F)cc(C(F)(F)F)c1)c1ccc(C(=O)NO)cc1 (stereo not drawn) [Compound I-173, N-(1-{4-[(hydroxyamino)carbonyl]phenyl}-2-methylpropyl)-3,5-bis(trifluoromethyl)benzamide] | 100 to 500
12 | COc1ccc(C(=O)N[C@@H](c2ccc(C(=O)NO)cc2)C(C)C)cc1 [Compound I-19, N-((1R)-1-{4-[(hydroxyamino)carbonyl]phenyl}-2-methylpropyl)-4-methoxybenzamide] | < 100
13 | CCC[C@@H](NC(=O)C(C)(C)C)c1ccc(C(=O)NO)cc1 [Compound I-365, 4-{(1R)-1-[(2,2-dimethylpropanoyl)amino]butyl}-N-hydroxybenzamide] | < 100
14 | Cc1ccc(NC(=O)NC(C)c2ccc(C(=O)NO)cc2)c(C)c1 (stereo not drawn) [Compound I-383, 4-[1-({[(2,4-dimethylphenyl)amino]carbonyl}amino)ethyl]-N-hydroxybenzamide] | < 100
15 | Cc1[nH]c2c(C)ccc(C)c2c1CC(=O)NC(c1ccc(C(=O)NO)cc1)C(C)C (stereo not drawn) [Compound I-220, N-hydroxy-4-(2-methyl-1-{[(2,4,7-trimethyl-1H-indol-3-yl)acetyl]amino}propyl)benzamide] | 100 to 500
16 | Cc1oc(-c2ccccc2)nc1CC(=O)NC(c1ccc(C(=O)NO)cc1)C(C)C (stereo not drawn) [Compound I-48, N-hydroxy-4-(2-methyl-1-{[(5-methyl-2-phenyl-1,3-oxazol-4-yl)acetyl]amino}propyl)benzamide] | 100 to 500
17 | Cc1nn(C)cc1C(=O)NC(c1ccc(C(=O)NO)cc1)C(C)(C)C (stereo not drawn) [Compound I-86, N-(1-{4-[(hydroxyamino)carbonyl]phenyl}-2,2-dimethylpropyl)-1,3-dimethyl-1H-pyrazole-4-carboxamide] | 100 to 500
18 | O=C(NO)c1ccc([C@H](NC(=O)C23CC4CC(CC(C4)C2)C3)C2CC2)cc1 [Compound I-46, N-((R)-cyclopropyl{4-[(hydroxyamino)carbonyl]phenyl}methyl)adamantane-1-carboxamide] | 100 to 500
19 | C[C@@H](NC(=O)Nc1ccc2c(c1)CCO2)c1ccc(C(=O)NO)cc1 [Compound I-528, 4-((1R)-1-{[(2,3-dihydro-1-benzofuran-5-ylamino)carbonyl]amino}ethyl)-N-hydroxybenzamide] | < 100
20 | O=C(NO)c1ccc([C@@H](NC(=O)c2cc3ccccc3s2)C2CC2)cc1 [Compound I-249, N-((S)-cyclopropyl{4-[(hydroxyamino)carbonyl]phenyl}methyl)-1-benzothiophene-2-carboxamide] | 100 to 500
21 | CC(C)[C@@H](NC(=O)NC(C)(C)C)c1ccc(C(=O)NO)cc1 [Compound I-368, 4-((1R)-1-{[(tert-butylamino)carbonyl]amino}-2-methylpropyl)-N-hydroxybenzamide] | 100 to 500

Further lines, results first:

Row | IC50 [nM] | Structure (SMILES)
22 | < 100 | C[C@@H](NC(=O)c1cccn1C)c1ccc(C(=O)NO)cc1 [Compound I-102, N-((1R)-1-{4-[(hydroxyamino)carbonyl]phenyl}ethyl)-1-methyl-1H-pyrrole-2-carboxamide]
23 | < 100 | Cc1c(C(=O)N[C@@H](c2ccc(C(=O)NO)cc2)C(C)C)oc2ccccc12 [Compound I-187, N-((1R)-1-{4-[(hydroxyamino)carbonyl]phenyl}-2-methylpropyl)-3-methyl-1-benzofuran-2-carboxamide]
24 | < 100 | CC(NC(=O)c1sccc1-n1cccc1)c1ccc(C(=O)NO)cc1 (stereo not drawn) [Compound I-228, N-(1-{4-[(hydroxyamino)carbonyl]phenyl}ethyl)-3-(1H-pyrrol-1-yl)thiophene-2-carboxamide]
25 | 100 to 500 | Cn1c(C(=O)NC(c2ccc(C(=O)NO)cc2)C(C)(C)C)cc2ccccc21 (stereo not drawn) [Compound I-364, N-(1-{4-[(hydroxyamino)carbonyl]phenyl}-2,2-dimethylpropyl)-1-methyl-1H-indole-2-carboxamide]
26 | < 100 | CC(NC(=O)c1cn2ccccc2n1)c1ccc(C(=O)NO)cc1 (stereo not drawn) [Compound I-125, N-(1-{4-[(hydroxyamino)carbonyl]phenyl}ethyl)imidazo[1,2-a]pyridine-2-carboxamide]
27 | 100 to 500 | CC(NC(=O)c1cc2cc(Cl)ccc2o1)c1cccc(C(=O)NO)c1 (stereo not drawn) [Compound I-226, 5-chloro-N-(1-{3-[(hydroxyamino)carbonyl]phenyl}ethyl)-1-benzofuran-2-carboxamide]
28 | < 100 | CC(NC(=O)c1ccc(Cl)cc1)c1ccc(C(=O)NO)cc1 (stereo not drawn) [Compound I-136, 4-chloro-N-(1-{4-[(hydroxyamino)carbonyl]phenyl}ethyl)benzamide]
29 | < 100 | CC(NC(=O)c1cccn1C)c1ccc(C(=O)NO)cc1 (stereo not drawn) [Compound I-356, N-(1-{4-[(hydroxyamino)carbonyl]phenyl}ethyl)-1-methyl-1H-pyrrole-2-carboxamide]
30 | < 100 | Cc1ccc(C(=O)NC(C)c2ccc(C(=O)NO)cc2)s1 (stereo not drawn) [Compound I-147, N-(1-{4-[(hydroxyamino)carbonyl]phenyl}ethyl)-5-methylthiophene-2-carboxamide]
31 | 100 to 500 | Cn1ccc(C(=O)NC(c2ccc(C(=O)NO)cc2)C(C)(C)C)n1 (stereo not drawn) [Compound I-66, N-(1-{4-[(hydroxyamino)carbonyl]phenyl}-2,2-dimethylpropyl)-1-methyl-1H-pyrazole-3-carboxamide]
32 | < 100 | CC(=O)c1cccc(NC(=O)NC(C)c2ccc(C(=O)NO)cc2)c1 (stereo not drawn) [Compound I-358, 4-[1-({[(3-acetylphenyl)amino]carbonyl}amino)ethyl]-N-hydroxybenzamide]
33 | 100 to 500 | Cc1cc(C)c(C(=O)NC(c2ccc(C(=O)NO)cc2)C(C)(C)C)[nH]1 (stereo not drawn) [Compound I-262, N-(1-{4-[(hydroxyamino)carbonyl]phenyl}-2,2-dimethylpropyl)-3,5-dimethyl-1H-pyrrole-2-carboxamide]

Reference: patent US9382197B2, “Substituted hydroxamic acids and uses thereof” (Millennium Pharmaceuticals, Inc., priority 2010, dated 2016)
